Test results: patent US12285408B2, “Methods and compositions for the treatment of snake bite” (priority 2021, dated 2025)

How the values were obtained:
[1] = in vivo; cited from earlier work
normal plasma clotting = assay: Normal plasma clotting in the absence of venom; format: biochemical, bovine; settings: 150 μM, no venom
Method: FIG. 14. The serine protease-inhibitor nafamostat inhibits normal plasma clotting. Comparison of normal clotting (i.e. in the absence of venom and inhibitors via recalcification) and clotting in the presence of the generic serine protease-inhibitor nafamostat. […] The anticoagulant effect of this drug is expressed as a percentage of the plasma-only activity.
(§1) We used a previously developed plasma clotting assay^35 to measure venom-induced coagulation. Briefly, 100 ng of each venom was incubated at 37° C. for 30 min in the presence or absence of inhibitors (150 μM to 150 nM final concentrations). The final reaction consisted of 10 μl venom±inhibitors in PBS, 20 μl 20 mM CaCl2), and 20 μl citrated bovine plasma (VWR). The samples were pipetted in triplicate into 384-well plates, and absorbance monitored at 595 nm for 2 h at 25° C. on an Omega FLUOstar instrument. We calculated the maximum clotting velocity of each of the curves as per clot waveform analysis^67, by calculating the maximum of the first derivative. The means of at least three independent experimental runs for each condition were plotted at each inhibitor concentration with SEMs.

Echis ocellatus venom = assay: Murine preincubation (co-incubation) model of venom lethality, intravenous, with TAT ELISA; format: in vivo, CD-1 mice; settings: 45 μg venom (2.5×LD50) preincubated 30 min at 37° C. with 60 μg of each drug, i.v., 6 h monitoring, n=5
Method: The intravenous median lethal dose (venom LD50) for E. ocellatus (Nigeria) of 17.85 μg per mouse was previously determined. Mice were challenged with 45 μg of E. ocellatus venom (2.5×the intravenous LD50 dose) in a refined version of the World Health Organization-recommended antivenom efficacy experiments. Groups of five male 18-22 g CD-1 mice (Charles River, UK) received experimental doses that consisted of either (a) venom only (2.5×LD50 dose), (b) venom and drug (60 μg) or (c) drug only. All experimental doses were prepared to a volume of 200 μl in PBS and incubated at 37° C. for 30 mins prior to their intravenous injection via the tail vein. Animals were monitored for 6 hours and euthanized upon observation of humane endpoints (seizure, pulmonary distress, paralysis, hemorrhage). Deaths, time of death, and survivors were recorded; where “deaths/time of death” represents the implementation of euthanasia based on the defined humane endpoints.
The same murine preincubation model was used to assess the efficacy of distinct toxin family inhibiting drugs in comparison with a drug combination. […] All experimental doses were prepared to a volume of 200 μl in PBS and incubated at 37° C. for 30 min prior to their intravenous injection via the tail vein. Animals were monitored for 6 h, and euthanized via rising concentrations of CO2 upon observation of previously defined humane end points that are predicators of lethality (e.g., seizure, pulmonary distress, paralysis, hemorrhage). Deaths, time of death, and survivors were recorded; where death/time of death represents the implementation of euthanasia based on defined humane end points.
Strong drug hits, those defined as inhibiting >80% of the venom activity in the previously described in vitro metalloproteinase assay (FIG. 1), were next progressed into murine preclinical efficacy studies, to assess their ability to prevent venom-induced lethality in vivo. We used an established in vivo model of envenoming to test the efficacy of the seven snake venom metalloproteinase toxin inhibitors identified. This model consisted of the preincubation of the test drug with venom, followed by intravenous injection of the mixture into groups of five male CD-1 mice (18-20 g) via the tail vein followed by 6 hour monitoring, and is based on principles laid out in the gold standard method of preclinical efficacy recommended by the World Health Organization.
We used an established in vivo model of envenoming^41,42 to test the efficacy of small molecule toxin inhibitors. […]

[2] = test system: SVSP activity of viper venoms; assay: Chromogenic SVSP (serine protease) assay; format: biochemical
From the text: FIG. 13. Nafamostat inhibits the in vitro serine protease activities of several geographically distinct viper venoms. (A) The serine protease (SVSP) activity of five viper venoms expressed as the rate (ΔAbs/time/μg venom) of substrate consumption determined by kinetic chromogenic assay. The data represents triplicate independent repeats with SEMs, where each technical repeat represents the mean of n≥2 technical replicates. EOC, E. ocellatus; ECAR, E. carinatus; BAS, Bothrops asper, BAR, Bitis arietans; DRUS, Daboia russelii. (B) Neutralization of SVSP venom activity by the serine protease-inhibitor nafamostat. The data is expressed as rates (ΔAbs/time/μg venom) and represents triplicate independent repeats with SEMs, where each technical repeat represents the mean of n≥2 technical replicates. […] Note the different y-axis scales.
SVSP activity was measured using a chromogenic substrate (S-2288, Cambridge Bioscience). […] The samples were pipetted in triplicate into 384-well plates (Greiner) and absorbance at 405 nm was monitored kinetically for ˜30 min on an Omega FLUOstar instrument (BMG Labtech). Given the linearity of the resulting slopes, negative control readings (PBS) were subtracted from each reading and the rate of substrate consumption calculated by measuring the slope between 0 and 5 mins. […]

[3] = test system: procoagulant activities of viper venoms (E. ocellatus, E. carinatus, B. asper, D. russelii); assay: Plasma clotting assay, neutralization of procoagulant venom activity; format: biochemical; settings: range across all venoms, 100 ng venom, bovine plasma; read-out: IC50, inhibition of procoagulant activity
From the text: FIG. 11. SVMP-inhibitors neutralize the in vitro procoagulant activities of several geographically distinct viper venoms. […] The data presented represents the maximum clotting velocity, calculated as the maximum of the first derivative of each clotting curve, from triplicate independent repeat experiments with SEMs, where each technical repeat represents the mean of n≥2 technical replicates. EOC, E. ocellatus; ECAR, E. carinatus; BAS, Bothrops asper, BAR, Bitis arietans; DRUS, Daboia russelii. (B) Neutralization of procoagulant venom activity by four SVMP-inhibitors across four drug concentrations (150 μM to 150 nM). The data is expressed as the maximum clotting velocity at each dose. The negative (PBS) and positive (venom-only) controls are presented as intervals (bottom dashed and top dashed lines, respectively), with the latter representing the mean maximum clotting velocity in these samples±SEM. The data represent triplicate independent repeats with SEMs, where each technical repeat represents the mean of n≥2 technical replicates. Note the different y-axis scales.
Since SVMPs are key toxins associated with causing coagulopathy, we next investigated whether the same peptidomimetic and metal chelating inhibitors could also neutralize the procoagulant bioactivities of viper venoms. To do so, we used a validated kinetic absorbance-based assay monitoring plasma clotting^35 in the presence or absence of venoms and inhibitors (FIG. 11).
as §1

[4] = test system: SVMP activity of E. ocellatus, E. carinatus, B. asper and B. arietans venoms; assay: In vitro kinetic fluorogenic SVMP assay (Study 2); format: biochemical
From the text: FIG. 10. […] (A) SVMP activities of the five viper venoms quantified by fluorogenic assay. The data presented represent mean measurements and SEMs of area under the curves of fluorescent arbitrary units taken from three independent experimental runs. EOC, E. ocellatus; ECAR, E. carinatus; BAS, Bothrops asper, BAR, Bitis arietans; DRUS, Daboia russelii. (B) The effectiveness of metal chelators and peptidomimetic hydroxamate inhibitors at inhibiting the SVMP activity of the various viper venoms. Drug concentrations from 150 μM to 150 nM (highest to lowest dose tested) are presented. The data is expressed as percentage of the venom-only sample (100%, top dashed line). The negative control is presented as an interval (bottom dashed lines) and represents the values recorded in the PBS-only samples (expressed as percentage of venom activity), where the highest and the lowest values in each set of independent experiments are depicted. […] All data represent triplicate independent repeats with SEMs, where each technical repeat represents the mean of n≥2 technical replicates.
We used an in vitro kinetic fluorogenic assay^28 to assess the SVMP bioactivity of each venom and its inhibition by varying concentrations of the four SVMP-inhibitors.
The SVMP assay measuring metalloproteinase activity and the plasma assay measuring coagulation in the presence or absence of venoms and inhibitors were performed as previously described^28. The SVMP assay kinetically measured cleavage of a quenched fluorogenic substrate (ES010, R&D Biosystems) by venom in the presence or absence of inhibitors.
Briefly, 10 μl of the substrate (supplied as a 6.2 mM stock) was used per 5 ml reaction buffer (150 mM NaCl, 50 mM Tris-CI pH 7.5). Reactions consisted of 10 μl of venom±inhibitors in PBS and 90 μl of substrate. Venoms were used at 1 μg/reaction and final inhibitor concentrations ranged from 150 μM to 150 nM. Samples were preincubated for 30 min at 37° C. and pipetted in triplicate into 384-well plates (Greiner). Thereafter, data was collected on an Omega FLUOstar (BMG Labtech) instrument at an excitation wavelength of 320 nm and emission wavelength of 405 nm at 25° C. for 1 h. The areas under the curve (AUCs) in the 0-40 min interval were calculated for each sample using MARS data analysis software v3.31 (BMG Labtech); this time point was chosen as the time where all fluorescence curves had reached a plateau (maximum fluorescence). For comparing venom-only samples, the means of at least three independent experimental runs for each condition, expressed as AUCs (n≥3), were plotted at each inhibitor concentration with standard error of the mean (SEM). To determine inhibitor efficacy, the AUCs for each of the samples that consisted of venom+inhibitors were transformed and expressed as percentages of the venom-only sample (where the venom was 100%). The negative control (PBS only) was also expressed relative to the venom, and the variation in background was presented as an interval delineated by the lowest and highest values in the PBS-only samples across concentrations and inhibitors for a specific venom. […] However, only the latter two concentrations were sufficiently depleted of DMSO for viable use in the assay.

| SMILES | half-life [1] | effect on normal plasma clotting (normal plasma clotting) | survival / protection against venom-induced lethality (Echis ocellatus venom) | inhibition of SVSP activity ([2]; highest doses 150 and 15 μM, irrespective of venom) | IC50 ([2]; range across venoms, 1 μg venom/reaction, read-out: IC50s, inhibition of SVSP activity) | IC50 [3] | lowest concentration effective / required to fully inhibit SVMP activities ([4]; concentrations tested 150 μM to 150 nM) | IC50 ([4]; range across venoms, 1 μg venom/reaction, read-out: IC50s, inhibition of SVMP activity) |
| --- | --- | --- | --- | --- | --- | --- | --- | --- |
| N=C(N)c1ccc2cc(OC(=O)c3ccc(N=C(N)N)cc3)ccc2c1 [nafamostat] | ~8 min | dramatically inhibits plasma coagulation | no evident efficacy | completely inhibiting SVSP activity | 120 to 1070 nM |  |  |  |
| OCC(S)CS (centres unmarked) [dimercaprol, 2,3-dimercapto-1-propanol] |  |  |  |  |  | 150 to 3700 nM | 1.5 µM | 20 to 400 nM |
